Laboratory results: patent US8247551B2, “Lead sensor and methods of use” (priority 2007, dated 2012)

Experiments:
[1] = Fluorescence quantum yield in reference to fluorescein; assay type: physicochemical
Method: For an acetonitrile solution of fluorophore 7, when excited at […] or 384 nm band, an emission at 411 nm is observed. Similarly when a methanolic solution of fluorophore 7 is excited at 385 nm or 367 nm, an emission at 415 nm is observed. Finally for a solution of fluorophore 7 in the mixed solvent, when excited at 389 nm, an emission is observed at 423 nm (see FIG. 10). A 0.12 value for the quantum yield of fluorophore 7 in methanol was determined in reference to fluorescein in 0.1 M NaOH (φ=0.95) (using the procedure reported by Brannon, et al., J. Phys. Chem. 1978, 82, 705). Fluorophores of the present disclosure are further described in U.S. application Ser. No. 12/020,343, filed Jan. […]
When the fluorescent binder according to the present embodiments binds with Pb^2+ to form a Pb^2+/binder complex, the complex fluoresces with a high optical brightness. For example, according to the present embodiments, the unbound fluorescent binder represented by Formula V (or Formula IV, in its protected form) may have an excitation band with a absorbance maximum λmax at a wavelength centered around 415 nm, an emission band with a emission maximum λmax centered around 465 and a quantum yield for the fluorescence emission of φ=0.12. […] Quantum yields were calculated with reference to the quantum yield of fluorescein (φ=0.95). […]

[2] = Quantitative Pb2+ detection in NIST SRM 1643e Trace Elements in Water; details: 1 μM compound, NEt4OH 2:1, 2.5% MeOH and water
Method: The fluorescence emission intensity of the Pb^2+/complex in a sample may be measured and compared to a standard calibration plot or values to determine the Pb^2+ ion concentration in the sample. For example, To further examine the sensitivity and accuracy of the sensor, a NIST standard of trace elements in water (SRM® 1643e) in the concentration range of 1-50 ppb Pb^2+ was used and probed with 1 μM of a compound having the structure of Formula IV. In this case, accurate fluorescence responses were observed from 50 ppb to as low as 10 ppb. Further, compound IV was also used in quantitating the concentration of Pb^2+ in solutions prepared from a lead standard (NIST SRM® 3128).
All spectroscopic measurements were recorded in a solution of 2.5% methanol (for solubility reason) and water. HPLC grade MeOH and distilled water were used for each measurement. Absorption spectra were measured on a Varian Cary 300 spectrometer. Samples for absorption measurement were performed in 1-cm 1-cm quartz cuvettes (3.5 mL volume, Starna). Fluorescence spectra were measured on a Photon Technology International QuantaMaster™4 spectrofluorometer. Fluorescence measurements were performed in 1-cm 1-cm quartz cuvettes (3.5 mL volume, NSG Precision Cells). Fluorescence quantum yields were determined in reference to fluorescein in 0.1 NaOH (φ=0.95). […]

[3] = Stability in acid and base; assay type: physicochemical
Text: (§1) These fluorophores are soluble in common organic solvents, for example, but not limited to, chloroform, methylene chloride, acetonitrile, and methanol and in mixtures of methanol and water. […] There is a shoulder near […] and no transition was observed beyond 430 nm. The molar extinction coefficients of these bands are near 10000 or higher. […] The spectral features remain unchanged in a mixed solvent such as 2.5% methanol 97.5% water. […] Thus, in principle, this compound can be used as a pH sensor. That is, the fluorescence emission intensity may vary according to the pH of the environment or solution that the fluorophore is in.

[4] = Fluorescence emission with Pb2+ versus other metal ions (Example 5, FIG. 51); details: 5 μM fluorophore, 75 μM Pb^2+, other metal ion 75 μM or 2 millimolar
Text: According to certain embodiments, the fluorescent binder discussed herein selectively binds to Pb^2+ over other metal ions including other transition metal ions. According to various embodiments, the fluorescence emission intensity of the Pb^2+/binder complex is greater than a fluorescence emission intensity of other metal ion/binder complexes. Other metal ions that may form a metal ion/binder complex that has a lower fluorescence emission intensity than that of the Pb^2+/binder complex include, but are not limited to Li^+, Na^+, K^+, Ca^2+, Mg^2+, Fe^2+, Co^2+, Ni^2+, Cu^2+, Zn^2+, Cd^2+, Mn^2+, Hg^2+, Sn^2+, As^3+, and mixtures thereof. For example, according to one non-limiting embodiment, the Pb^2+/binder complex in the presence of the other metal ions may have a fluorescence emission intensity at least about 10 times greater than the fluorescence emission intensity of another metal ion/binder complex. In other embodiments, the Pb^2+/binder complex in the presence of the other metal may have a fluorescence emission intensity at least about 20 times greater than the fluorescence emission intensity of another metal ion/binder complex. FIG. 51 compares the fluorescence emission intensity of the Pb^2+/binder complex in the presence of the other metal with the fluorescence emission intensity of the other metal ion/binder complexes (i.e., in the absence of Pb^2+). […]

[5] = Turn-on fluorescence response to Pb2+ (Example 3, FIG. 49); details: 5 μM, 2.5% methanol-water; unbound at 465 nm, Pb^2+ complex at 423 nm
Text: When the fluorescent binder according to the present embodiments binds with Pb^2+ to form a Pb^2+/binder complex, the complex fluoresces with a high optical brightness. For example, according to the present embodiments, the unbound fluorescent binder represented by Formula V (or Formula IV, in its protected form) may have an excitation band with a absorbance maximum λmax at a wavelength centered around 415 nm, an emission band with a emission maximum λmax centered around 465 and a quantum yield for the fluorescence emission of φ=0.12. When the fluorescent binder is bound to Pb^2+ ions, the resulting Pb^2+/binder complex may have an excitation band with a λmax centered around 389 nm, an emission band with a λmax centered around 423 nm, and a quantum yield of φ=0.63. Quantum yields were calculated with reference to the quantum yield of fluorescein (φ=0.95). […]
In this Example, the “turn on” response of the fluorophore corresponding to Formula V (Formula IV in protected form) was determined. The fluorescence emission spectrum of a 5 μM solution of the fluorophore in 2.5% methanol-water was recorded with a maximum emission intensity observed at λmax=465 nm (expanded spectrum shown in the inset in FIG. 49). […] The fluorescence emission spectrum of the resulting Pb^2+/fluorophore complex was recorded with a maximum fluorescence emission intensity observed at λmax=423 nm as presented in FIG. 49.

[6] = Apparent dissociation constant for Pb2+ from fluorescence of the complex (Hill fit); assay type: binding; details: pH=10; read-out: apparent dissociation coefficient, Kd, for Pb^2+
Text: [drawing 8] or the corresponding thiolate compound (i.e., where one or both thiols of the ene-dithiol are deprotonated). In the presence of Pb^2+ ions and a hydrolyzing agent, the dithiocarbonate functionality of compound IV may be hydrolyzed and the resulting fluorescent binder compound binds with the Pb^2+ to form a Pb^2+/binder complex. According to specific embodiments, the fluorescent binder of the present disclosure has a high sensitivity for Pb^2+ ions, even in the presence of other metal ions. […] In other embodiments, the Kd may be less than 300 nM, or in certain embodiments less than 250 nM. […] As will be understood by one of ordinary skill in the art, the Kd for binding of Pb^2+ may vary according to the conditions of the experiment, including, but not limited to solvent, temperature, pH, etc. It should be noted that in other embodiments, other compounds represented by Formula I may also serve as selective binders of lead, or other metal ions.
All spectroscopic measurements were recorded in a solution of 2.5% methanol (for solubility reason) and water. HPLC grade MeOH and distilled water were used for each measurement. Absorption spectra were measured on a Varian Cary 300 spectrometer. Samples for absorption measurement were performed in 1-cm 1-cm quartz cuvettes (3.5 mL volume, Starna). […]

Solubility = assay type: physicochemical
Text: as §1
In addition, the Pb^2+/binder complex fluoresces with greater emission intensity over a wide pH range in aqueous solutions. According to one embodiment the Pb^2+/binder complex fluoresces with a high fluorescence emission intensity, for example with a quantum yield of greater than 0.5 (φ>0.5), at pH values of 10 or less. […] Thus, the term “high fluorescence emission intensity” means a fluorescence emission intensity having a quantum efficiency of greater than 0.5 (φ>0.5 as measured relative to a fluorescein reference). […] With other fluorophores, the fluorescence emission intensity of the fluorophore may decrease at low pH levels. For comparison, as discussed herein, the quantum yield for fluorescence emission of fluorescein decreases at pH levels less than ˜8.

In the case of `CC1(C)Oc2nc3ccccc3nc2-c2sc(=O)sc21` [Compound 7, 4,4-dimethyl-4H-5-oxa-1,3-dithia-6,11-diaza-cyclopenta[a]anthracen-2-one], the quantum yield ([1]; in methanol, reference fluorescein in 0.1 M NaOH) is reported as 0.12, the “Pb^2+ range detected quantitatively by increase in fluorescence response” value [2] is reported as 10-50 ppb and the stability in acid ([3]; acid) is reported as “stable in acid”. For the same molecule, the stability in base ([3]; base (pH>7)) was “transforms into a less fluorescent substance”.
In the case of `CC1(C)Oc2nc3ccccc3nc2C(S)=C1S` [Formula V], the “fluorescence emission intensity with Pb^2+ plus other metal ion versus other metal ion alone” value [4] is reported as “significantly greater fluorescence emission intensity”, the “maximum fluorescence emission intensity” value [5] is reported as ~6000 counts/second and the “quantum yield for the fluorescence emission” value ([1]; unbound binder or Pb^2+ complex, reference fluorescein (φ=0.95)) is reported as 0.12. The Kd [6] was 217 nM and the “solubility in aqueous solution” value (Solubility) was “soluble in aqueous solution”.
